Read-outs that look alike come from different tables or passages of the source.
Experiments:
[1] = system: SKOV3 human ovarian cancer cells; test: cells; conditions: SKOV3 cells
Method: (§1) (1) Cells were plated in a 10 cm culture plate to grow a density of about 90%. The medium was removed, and the adherent cells were washed once with a PBS buffer. 1 mL of trypsin was added, and immediately discarded after mixing well. The cells were placed in the incubator and digested for about 5 min, and then about 10 ml of fresh medium was added. 10 μL was taken for counting.
(§2) (2) 10 μL of the well-mixed cells were taken and mixed into 10 μL of Trypan Blue solution, and counted.
(§3) (3) After counting, the cells were diluted to 1×10^5 cells/ml. The diluted cells were mixed well, and plated into a 24-well plate with 500 μL per well, i.e., about 50,000 cells per well.
(§4) (4) The cells plated in the 24-well plate were cultured for about 24h, and then drugs were added. Various test groups comprise 5 groups as follows: the single-drug group of PKF118-310 (with a concentration of 0.1 μM), the group of ascorbic acid (with a concentration of 0.5 mM), the group of PKF118-310 (with a concentration of 0.1 μM) in combination with ascorbic acid (with a concentration of 0.5 mM); the control group that is a cell group to which only solvent DMSO is added; and the blank group that is a group to which no cell is added and only solvent (DMSO) is added.
(§5) (5) After 24h of dosing, the medium was discarded. About 150 μL of trypsin was added and then discarded. The cells were digested for 5 min;
(§6) (6) After digestion, equivalent amounts of PBS were added into each well and mixed uniformly. Then, 10 μL/well of Trypan Blue solution was added and mixed uniformly. 10 μL of the well-mixed solution was taken and counted. In accordance with “Cell viability=Cell Count of Test Group/Cell Count of Control Group×100%”, the cell viability of various groups was calculated.
(§7) The inhibitory effect of PKF118-310 on the SKOV3 human ovarian cancer cells and the 3AO human ovarian cancer cells was detected in accordance with the corresponding method of Example 1.

[2] = system: 3AO human ovarian cancer cells; test: cells; conditions: 3AO cells
Method: as §1, §2, §3, §4, §5, §6, §7

[3] = 0.3 μM in combination with 0.5 mM sodium ascorbate
[4] = 0.5 μM in combination with 0.5 mM sodium ascorbate
[5] = 0.1 μM in combination with 0.5 mM sodium ascorbate

With `Cn1ncnc2c(=O)n(C)c(=O)nc1-2` [PKF118-310] the “effect on the body weight of mice” value (PKF118-310 0.7 mg/kg s.c. in combination with ascorbate 1 g/kg i.v. every 3 days) was “no effect on the body weight of mice”, the “effect on the body weight of mice” value (alone, PKF118-310 0.7 mg/kg s.c. or ascorbate 1 g/kg i.v. every 3 days) was “no effect on the body weight of mice” and the CDI value [1, 3] was 0.31. It also gave a cell viability [1, 3] of 28%, a CDI value [1, 4] of 0.34 and a cell viability [1, 4] of 20%. For the same compound, the cell viability ([1]; single-drug 0.3 μM) was 94%, the cell viability ([1]; single-drug 0.5 μM) was 61% and the CDI value [2, 5] was 0.35. For the same compound, the cell viability [2, 5] was 31%, the CDI value [2, 3] was 0.19 and the cell viability [2, 3] was 13%. For the same compound, the cell viability ([2]; 0.05 M in combination with 0.5 mM sodium ascorbate) was 58%, the CDI value ([2]; in combination with 0.5 mM sodium ascorbate) was 0.60 and the cell viability ([2]; single-drug 0.1 μM) was 92%. The cell viability ([2]; single-drug 0.3 μM) was 69% and the cell viability ([2]; single-drug 0.05 M) was 101%.
